Laboratory results reported in ChEMBL document CHEMBL5230085, “Design, synthesis, and biological characterization of a new class of symmetrical polyamine-based small molecule CXCR4 antagonists” (Eur J Med Chem, 2020).
pIC50: −log10 of the molar value. Calls of active or inactive are those of the source. No cut-off for these calls is given here.

How the values were obtained:
[1] = biological target: T1, C-X-C chemokine receptor type 4 (Homo sapiens, UniProt P61073); experiment: Binding affinity to CXCR4 (unknown origin) expressed in CHO cells incubated for 40 mins by competitive binding assay method; assay type: cell-based
[2] = Antiviral activity against HIV1 NL4-3 infected in human CEM-GFP cells assessed as inhibition in viral growth measured after 5 days by 96-well plate assay method; assay type: functional, cell-based; settings: NL4-3, CEM-GFP, 120 h
[3] = tested on: C-X-C chemokine receptor type 4 (Homo sapiens), P61073 [E288D]; experiment: Binding affinity to CXCR4 E288D mutant (unknown origin) by 12G5 competitive binding assay
[4] = tested on: CEM-GFP; experiment: Cytotoxicity against human CEM-GFP cells assessed as cell viability at 10 uM incubated for 5 days by Celltiter-blue assay method; assay type: functional, cell-based; settings: time 5.0 day
[5] = biological target: T1, C-X-C chemokine receptor type 4; experiment: Antagonist activity at CXCR4 receptor in SDF-1alpha-stimulated human SUP-T1 cells incubated for 30 mins by calcium mobilization assay; assay type: cell-based
[6] = biological target: T1, C-X-C chemokine receptor type 4; experiment: Binding affinity to CXCR4 (unknown origin); settings: filed as antagonist
[7] = tested on: C-X-C chemokine receptor type 4 (Homo sapiens), P61073 [E288D]; experiment: Binding affinity to CXCR4 E288D mutant (unknown origin) by competitive binding assay method; settings: filed as antagonist
[8] = tested on: C-X-C chemokine receptor type 4 (Homo sapiens), P61073 [D262A]; experiment: Binding affinity to N-terminus CXCR4 D262A mutant (unknown origin)
[9] = tested on: C-X-C chemokine receptor type 4 (Homo sapiens), P61073 [R30A]; experiment: Binding affinity to N-terminus CXCR4 R30A mutant (unknown origin)
[10] = tested on: C-X-C chemokine receptor type 4 (Homo sapiens), P61073 [H113A]; experiment: Binding affinity to N-terminus CXCR4 H113A mutant (unknown origin)
[11] = tested on: C-X-C chemokine receptor type 4 (Homo sapiens), P61073 [D193A]; experiment: Binding affinity to CXCR4 D193A mutant (unknown origin) assessed as reduction in potency; parameters: scale not given: the % may be the effect or the level left; settings: filed as antagonist
[12] = tested on: C-X-C chemokine receptor type 4 (Homo sapiens), P61073 [W195A]; experiment: Binding affinity to CXCR4 W195A mutant (unknown origin) assessed as reduction in potency; parameters: scale not given: the % may be the effect or the level left; settings: filed as antagonist
C-X-C chemokine receptor type 4 (Homo sapiens), P61073 [W195A], sequence (P61073 whole entry W195A): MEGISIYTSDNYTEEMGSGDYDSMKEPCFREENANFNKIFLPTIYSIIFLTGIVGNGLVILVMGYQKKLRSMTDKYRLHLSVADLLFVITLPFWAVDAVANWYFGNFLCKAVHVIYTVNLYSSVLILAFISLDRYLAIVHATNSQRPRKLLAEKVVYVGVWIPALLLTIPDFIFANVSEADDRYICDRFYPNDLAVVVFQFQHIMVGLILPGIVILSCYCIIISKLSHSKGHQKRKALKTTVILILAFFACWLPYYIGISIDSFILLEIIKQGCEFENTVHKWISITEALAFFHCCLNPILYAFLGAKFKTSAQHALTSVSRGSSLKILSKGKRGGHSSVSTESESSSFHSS

T1 sequence (P61073 whole entry): as the sequence (P61073 whole entry W195A) above, with A195W counted along it
C-X-C chemokine receptor type 4 (Homo sapiens), P61073 [E288D], sequence (P61073 whole entry E288D): as the sequence (P61073 whole entry W195A) above, with A195W, E288D counted along it
C-X-C chemokine receptor type 4 (Homo sapiens), P61073 [D193A], sequence (P61073 whole entry D193A): as the sequence (P61073 whole entry W195A) above, with D193A, A195W counted along it
C-X-C chemokine receptor type 4 (Homo sapiens), P61073 [R30A], sequence (P61073 whole entry R30A): as the sequence (P61073 whole entry W195A) above, with R30A, A195W counted along it
C-X-C chemokine receptor type 4 (Homo sapiens), P61073 [D262A], sequence (P61073 whole entry D262A): as the sequence (P61073 whole entry W195A) above, with A195W, D262A counted along it
C-X-C chemokine receptor type 4 (Homo sapiens), P61073 [H113A], sequence (P61073 whole entry H113A): as the sequence (P61073 whole entry W195A) above, with H113A, A195W counted along it

Compound | pIC50 [1] | other results
Nc1cc(CNCCCNC2CCCCC2)cc(CNCCCNC2CCCCC2)c1 | 7.09 | 
c1ccc2c(CNCCCNC3CCCCC3)ccc(CNCCCNC3CCCCC3)c2c1 | 7.39 | 
c1cc(CNCCCNC2CCCCC2)ncc1CNCCCNC1CCCCC1 | 6.71 | 
c1cc(CNCCCNC2CCCCC2)ccc1CNCCCNC1CCCCC1 | 7.70 | pIC50 [2]: 5.82; Activity [3]: 30%; Activity [4]: Not toxic; pIC50 [5]: 6.92; Activity [6]: 60%; Activity [7]: 40%; Activity [8]: inactive; Activity [9]: inactive; Activity [10]: inactive; Activity [11]: 10%; Activity [12]: 10%
CN(C)c1cc(CNCCCNC2CCCCC2)ccc1CNCCCNC1CCCCC1 | 7.32 | 
O=C(NCCCNC1CCCCC1)c1ccc(C(=O)NCCCNC2CCCCC2)cc1 | 5.77 | 
c1ccc(CNCc2ccc(CNCc3ccccn3)cc2)nc1 | < 5.00 | 
CNc1cc(CNCCCNC2CCCCC2)cc(CNCCCNC2CCCCC2)c1 | 7.17 | 
Nc1cc(CNCCCNC2CCCCC2)ccc1CNCCCNC1CCCCC1 | 7.16 | 

Continued, in another order:

pIC50 [1] | Compound | other results
6.45 | O=[N+]([O-])c1cc(CNCCCNC2CCCCC2)ccc1CNCCCNC1CCCCC1 | 
6.81 | c1cc(CNCCCNC2CCCCC2)cc(CNCCCNC2CCCCC2)c1 | 
6.51 | c1c(CNCCCNC2CCCCC2)cc(CNCCCNC2CCCCC2)cc1CNCCCNC1CCCCC1 | 
7.17 | c1cc(-c2ccc(CNCCCNC3CCCCC3)cc2)ccc1CNCCCNC1CCCCC1 | 
6.83 | O=[N+]([O-])c1cc(CNCCCNC2CCCCC2)cc(CNCCCNC2CCCCC2)c1 | 
6.92 | CN(C)c1cc(CNCCCNC2CCCCC2)cc(CNCCCNC2CCCCC2)c1 | 
< 5.00 | c1cc(CNC2CCCCC2)ccc1CNC1CCCCC1 | 
6.16 | O=C(NCCCNC1CCCCC1)c1ccc(CNCCCNC2CCCCC2)cc1 | 
6.92 | c1cc(CNCCCNC2CCCCC2)nc(CNCCCNC2CCCCC2)c1 | 
